The source of these data is PMC4279419, “Angiostatic, tumor inflammatory and anti-tumor effects of CXCL4^47–70 and CXCL4L1^47–70 in an EGF-dependent breast cancer model” (Oncotarget, 2014).

Where no end group is shown, it is not given here. The star is where a group is joined. Biotin = O=C1N[C@H]2[C@H](CS[C@H]2CCCCC(=O)*)N1

For assay [1], the system named is CXCR3A. The assay can be described thus: Calcium signaling in CXCR3A-transfectants. It counts as cell-based. Particulars: CXCL10 5 ng/ml after prestimulation with buffer; CHO/CXCR3A; fura 2. An excerpt: We further tried to reveal the mode of action of CXCL4^47–70 and CXCL4L1^47–70. First, we excluded that either peptide still binds/activates one of the CXCR3 isoforms, the receptors for intact CXCL4 and CXCL4L1. […]
inhibit signaling by intact CXCL10. To study interaction of CXCL447–70 and CXCL4L147–70 with CXCR3A, CHO cells stably transfected with CXCR3A were loaded with the fluorescent dye fura 2 (Struyf et al. J. Immunol. 2009, 182:666). Changes in the intracellular Ca2+ concentrations ([Ca2+]i) in response to CXCL447–70 or CXCL4L147–70 treatment were monitored using a spectrofluorometer. The line in the spectra indicates the fluorescence intensity ratio (i.e. the fluorescence intensity measured after excitation at 340 nm divided by the fluorescence intensity measured after excitation at 380 nm). The results shown (one representative experiment out of three) illustrate a desensitization experiment, in which CHO/CXCR3A cells were stimulated first with a peptide (2 µg/ml) and 100 s later with intact CXCL10 […]
peptides induced a rise in [Ca2+]i. When the cells were stimulated with 5 ng/ml intact CXCL10 100 s after peptide treatment, the response […]
interact with CXCR3A. Arrows indicate the time of addition of the stimulus.
(also on this page, place not known: www.impactjournals.com/oncotarget/ Oncotarget, Supplementary Materials 2014 CXCL4 47–70 CXCL4L1 47–70 CXCL4 47–70 CXCL4L1 47–70 CXCL4 47–70) […]

The test system of assay [2] is human dermal lymphatic microvascular endothelial cells (HLEC). The assay can be described thus: HLEC MTT proliferation assay. The class given is cell-based. The conditions noted are these: data not shown. As to the method:
(§1) First, HMVEC and HLEC were seeded at 5 × 10^3 cells/well in EBM-2 + 1% FCS in a 96-well plate, whereas MDA-MB-231 were starved of growth factors overnight by replacing their growth medium with DMEM (serum-free) prior to seeding the tumor cells at 15 × 10^2 cells/well in DMEM + 1% FCS. As for the rest of the assay, the same protocol applies to all cells. Once adherent, cells were incubated with different concentrations of the peptides CXCL4^47–70 and CXCL4L1^47–70 as single stimuli or in combination with recombinant human EGF (3 ng/ml; R&D Systems, Minneapolis, MN) at 37°C/5% CO2. All conditions were tested in triplicate or quadruplicate. After 3 to 4 days, stimulation medium was removed and a sterile MTT solution was added [0.04 g/100 ml thiazolyl blue (Sigma-Aldrich, St. Louis, MO) in 20% PBS/80% RPMI without phenol red (Lonza)] for 3 to 4 hours. The formed formasan crystals were dissolved by replacing the MTT solution with acidic propanol (0.04 M HCl, 0.1% (v/v) Nondet P-40 in absolute isopropanol) and shaking the plate, shielded from light, for 10 minutes. Optical density (OD) was determined at 570 nm and 630 nm. The obtained ODs were processed to proliferation indexes (PI), expressed relative to appropriate buffer controls, i.e. ΔOD570–630X over ΔOD570–630CO.
Background: Formazan colour is commonly taken as a measure of viable cells.

The subject of assay [3] is p21 in HMVEC. Put plainly: Intracellular p21 content in HMVEC (ELISA). Particulars: EGF 20 ng/ml; 15 h; p21:total protein; mean ± s.e.m., n=9; p<0.001 versus control. It counts as cell-based, human. As to the method: Signaling assays were slightly adapted to the signaling molecules of interest in this study. HMVEC were stimulated with EGF (20 ng/ml) as a single stimulus or in combination with the peptides CXCL4^47–70 and CXCL4L1^47–70 (0.3 to 10 μg/ml) in order to evaluate their impact on the cell cycle-arresting p21. After 15 hours, the cells were washed three times with ice-cold PBS to stop the stimulation and lysis buffer [1 mM EDTA, 0.5% (v/v) Triton-X, 10 mM NaF, 150 mM NaCl, 1 mM DTT in PBS; pH 7.2–7.4] supplemented with a protease inhibitor cocktail (Sigma) was added. Cell residue was removed from the collected lysates by centrifugation (4°C, 10 min, 1666g). Lastly, the intracellular p21 content was determined by DuoSet® IC ELISA (cat n° DYC1047, R&D Systems) while, in parallel, total protein content was measured in a bicinchoninic acid (BCA) protein assay (Pierce, Rockford, IL).
In general terms: An ELISA detects its analyte on a solid surface through an enzyme-linked reagent.

The test system of assay [4] is human retinal microvascular endothelial cells (HMVEC). The assay can be described thus: HMVEC MTT proliferation assay. The class given is cell-based. Particulars: EGF 3 ng/ml; control medium PI=1; 3 to 4 days; MTT OD570–630; mean ± s.e.m., n=7. The protocol:
as §1

In assay [5] the target is T1, recombinant human CCL5 (human, UniProt P13501 24-91).
T1 construct: CCL5, human, recombinant protein; source: bought: PeproTech
T1 sequence (looked up): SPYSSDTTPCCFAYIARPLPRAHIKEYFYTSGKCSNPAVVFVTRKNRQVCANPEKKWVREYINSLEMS
The assay can be described thus: ELISA; 50 ng/ml CCL5 in PBS coated overnight at room temperature on high protein-binding ELISA plates, blocked with 0.1% casein; dilution curve of biotinylated peptide at 37 °C; detected with peroxidase-conjugated streptavidin, OD450. The conditions noted are these: both partners purified.

Assay [6] deals with endothelial cell. The conditions noted are these: compared with CXCL4; cited from earlier work. An excerpt: Angiogenesis, the formation of an ever more branching network of blood vessels from a pre-existing vascular network, has been established as a requisite for successful tumor growth and cancer progression. Anti-angiogenic therapy thus offers a promising approach to tackle one of the leading causes of mortality worldwide. However, classic anti-angiogenic therapeutics have encountered important hurdles and interest in less obvious targets, including inflammatory mediators such as the chemokines, increases. These chemotactic cytokines play an important role in immunity as they ...

Assay [7] has as its system p21. Particulars: EGF-stimulated endothelial cells; cited from earlier work. The source says: Previously, the EGF-induced reduction of the cyclin-dependent kinase inhibitor p21 was described. […] Therefore, we studied the effects of chemokine-derived peptides on p21 levels and, with it, their ability to arrest the cell cycle. Evaluation of the p21 content in HMVEC did confirm CXCL4^47–70 and CXCL4L1^47–70 to counteract the tendency of EGF to reduce p21 (Figure 2). […] Ad ...

Assay [8] has as its system monocyte. Particulars: through heteromultimerization with CCL5; cited from earlier work. The source says:
Concerning direct cytokine ligand interactions, both positive and negative interactions have been described for intact CXCL4 [33, 34, 37, 38] and its carboxy-terminal peptide. […] In this study we chose two cytokines important in our breast cancer model and verified interaction with CXCL4^47–70 and CXCL4L1^47–70: EGF as g ...

For “CXCL10: intact CXCL10, CXCR3 ligand [reference compound]”, the “calcium response to CXCL10” value in assay [1] is “significant increase in [Ca2+]i”.
With “EGF: recombinant human EGF (R&D Systems) [reference compound]”, the “HLEC proliferation response to EGF” value in assay [2] is reported as “not responsive to EGF-stimulation”. Moreover, in assay [3], the “intracellular p21 relative to control (100%), EGF alone” value is 75.82 ± 3.69%. The “Proliferation index (PI), EGF alone” value in assay [4] came out at 1.42 ± 0.08.

B1: NH2-terminally biotinylated CXCL4^47–70 peptide (peptide, UniProt P02776 78-101, looked up)
peptide: Biotin-NGRKICLDLQAPLYKKIIKKLLES
notes: CXCL4/Platelet factor-4 (PF-4), human, last 24 amino acids (residues 47-70) of the 70 amino acid-long mature protein; has Pro58, Lys66, Leu67; numbers count on: the mature protein; The functional assays (chemotaxis, calcium) used the peptide without mention of biotin; also called carboxy-terminal peptide of CXCL4/Platelet factor-4 (PF-4); source: synthetic peptide (Fmoc chemistry, purified by …)
As to B1, in assay [5], the binding result is “binds”.

B2: CXCL4L1: recombinant human CXCL4L1 isolated from baculovirus-infected Sf9 cells (protein, UniProt P10720 31-104, looked up)
Platelet factor 4 variant: FARAEAEEDGDLQCLCVKTTSQVRPRHITSLEVIKAGPHCPTAQLIATLKNGRKICLDLQALLYKKIIKEHLES
On to B2, for which the “inhibition of CXCL8- and FGF2-induced endothelial cell chemotaxis” value in assay [6] is listed as “more efficiently than CXCL4”.

B3: CXCL4: natural human CXCL4 isolated from stimulated platelets; 70 amino acid-long mature protein (protein, UniProt P02776 32-101, looked up)
Platelet factor 4: EAEEDGDLQCLCVKTTSQVRPRHITSLEVIKAGPHCPTAQLIATLKNGRKICLDLQAPLYKKIIKKLLES
As for B3, the “effect on EGF-induced p21 downregulation” value in assay [7] is on record as “appeared to interfere with this p21 downregulation”. The “effect on CCL5 monocyte chemotactic activity” value in assay [8] is given as “enhances monocyte chemotactic activity of CCL5”.
